Columns and labels:
eEF2K [1] = target: T1, eEF2K (Homo sapiens, UniProt O00418); assay: Western blot analysis of eEF2K activity (p-EF2 Thr56) in MDA-MB-231 cells; format: cell-based; details: for eEF2K inhibition potential: western blot, 2.5 to 20 micromolar
T1 sequence (O00418 1-725): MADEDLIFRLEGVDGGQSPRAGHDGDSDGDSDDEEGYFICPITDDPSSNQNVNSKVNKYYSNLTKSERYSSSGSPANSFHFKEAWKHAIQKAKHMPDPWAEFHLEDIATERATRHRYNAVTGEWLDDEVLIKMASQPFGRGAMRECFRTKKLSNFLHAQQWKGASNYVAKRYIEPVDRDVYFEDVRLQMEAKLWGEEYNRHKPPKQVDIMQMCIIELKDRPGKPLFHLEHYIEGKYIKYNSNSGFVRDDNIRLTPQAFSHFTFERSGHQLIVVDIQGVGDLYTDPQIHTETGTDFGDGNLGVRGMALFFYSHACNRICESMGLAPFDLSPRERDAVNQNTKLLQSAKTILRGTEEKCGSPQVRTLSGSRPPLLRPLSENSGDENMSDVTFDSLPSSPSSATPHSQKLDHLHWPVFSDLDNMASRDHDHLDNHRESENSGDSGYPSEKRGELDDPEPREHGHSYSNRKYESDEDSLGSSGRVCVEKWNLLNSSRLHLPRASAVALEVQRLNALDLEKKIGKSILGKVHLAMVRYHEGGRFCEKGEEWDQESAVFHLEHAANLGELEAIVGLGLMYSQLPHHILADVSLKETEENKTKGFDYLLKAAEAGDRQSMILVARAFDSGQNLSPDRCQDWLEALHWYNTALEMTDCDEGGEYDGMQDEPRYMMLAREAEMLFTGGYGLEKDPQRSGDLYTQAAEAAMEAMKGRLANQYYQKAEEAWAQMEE
Protocol: MeOH: distilled water by volume (%) (70:30) was used as the mobile phase for HPLC analysis for the inventive compound and the flow rate was set to 1 mL min^−1. Triple negative breast cancer (TNBC) cell lines (ER-, PR- and HER2-) MDA-MB-231 cells were purchased from the American Type Culture Collection (ATCC) (Manassas, VA, USA). MDA-MB-231 cells were cultured in Dulbecco's modified Eagle's medium (DMEM)/F12 supplemented with 10% FBS (Fetal Bovine Serum) and 100 U mL^−1 penicillin and streptomycin. Specific antibodies (p-EF2 (Thr56) (2331S), eEF2 (2332S), eEF2K (3692S) and GAPDH (5174S)) were purchased from Cell Signaling Technology (CST).
Western blot analysis was carried out according to previously reported studies to evaluate the eEF2K inhibition activity for the synthesized compounds. The synthesized compound was applied to MDA-MB-231 cells in the range of various concentrations from 2.5 to 20 micromolar for 2 h treatment. The expression levels of p-EF2 (Thr56) inhibition and eEF2K activity were determined by using related antibodies such as p-EF2 (Thr56), eEF2 and eEF2K. Glyceraldehyde 3-phosphate dehydrogenase (GAPDH) was used as a loading control.
To determine the effects of the synthesized compounds in inhibiting eEF2K activity in TNBC, MDA-MB-231 cells, we performed western blot analysis at concentrations ranging from 2.5 micromolar to 20 micromolar in a dose-dependent manner. eEF2K inhibition was detected by decreased phosphorylation levels of EF2 (p-EF2-Thr-56), a direct downstream substrate of the enzyme.

eEF2K [2] = target: T1, eEF2K; details: literature; cited from earlier work
cancer cells = details: literature; cited from earlier work

eEF2K inhibition potential (eEF2K [1])	Structure (SMILES)	eEF2K inhibition (reported) (eEF2K [2])	further results
high inhibition potential	CCc1cccc2c3c([nH]c12)C(CC)(CC(=O)N1CCCCC1)OCC3 (centres unmarked) [Inventive compound, 2-(1,8-diethyl-1,3,4,9-tetrahydropyrano [3,4-b]indol-1-yl)-1-(piperidin-1-yl) ethan-1-one]		eEF2K inhibition (reduced levels of p-EF2) (eEF2K [1]; 2.5 micromolar, compared to etodolac (EC)): marked inhibition; inhibition of phospho-eEF2 (Thr56) (eEF2K [1]; 20 micromolar, 2 hours treatment): highest inhibition
	CCCCCCCCCCCCCCCCn1cc[n+](Cc2ccccc2)c1C.[I-] [NH125]	does not inhibit EF2K	
	Cc1cc(C=C2C(=O)C=CC2=O)cc(C)c1O [TX1918]	did not show significant eEF2K inhibition	concentration reported to inhibit eEF2K (eEF2K [2]): 10 µM
did not show any inhibition potential	CCc1cccc2c3c([nH]c12)C(CC)(CC(=O)O)OCC3 (racemic) [Etodolac, (R,S)-2-[1,8-diethyl-1,3,4-tetrahydropyrano [3,4-b]indol-1-yl]acetic acid]		
	CCn1c(=O)c2cc(C(N)=O)c(N)nc2n(C2CC2)c1=O [A484954]		dose showing inhibition effect in cancer cells (cancer cells): 75 µM

From patent US20260015359A1, “2-(1,8-DIETHYL-1,3,4,9-TETRAHYDROPYRANO[3,4-B]INDOL-1-YL)-1-(PIPERIDIN-1-YL)ETHAN-1-ONE ETODOLAC DERIVATIVE AS EUKARYOTIC ELONGATION FACTOR 2 KINASE (EEF2K) INHIBITOR FOR TARGETED CANCER THERAPY” (BAHCESEHIR UNIVERSITESI, priority 2023, published 2026)
